Assay results: article PMC9686657, “Protection against Oxidative Stress and Metabolic Alterations by Synthetic Peptides Derived from Erythrina edulis Seed Protein” (Antioxidants, 2022)
Where two headings read alike, the source gives them in different places. Ends that are not written are not given here. Peptide text beside a SMILES is read from it.

Key:
ACE from rabbit lung = molecular target: T1, ACE from rabbit lung (Oryctolagus cuniculus, UniProt P12822); assay: ACE inhibitory activity (HHL substrate); assay type: biochemical; details: n.d. = activity not detected; mean ± SD; read-out: ACE Inhibition (IC50)
T1 construct: ACE from rabbit lung; purchased Sigma-Aldrich; host or cells: rabbit lung tissue
T1 sequence (P12822 34-1310): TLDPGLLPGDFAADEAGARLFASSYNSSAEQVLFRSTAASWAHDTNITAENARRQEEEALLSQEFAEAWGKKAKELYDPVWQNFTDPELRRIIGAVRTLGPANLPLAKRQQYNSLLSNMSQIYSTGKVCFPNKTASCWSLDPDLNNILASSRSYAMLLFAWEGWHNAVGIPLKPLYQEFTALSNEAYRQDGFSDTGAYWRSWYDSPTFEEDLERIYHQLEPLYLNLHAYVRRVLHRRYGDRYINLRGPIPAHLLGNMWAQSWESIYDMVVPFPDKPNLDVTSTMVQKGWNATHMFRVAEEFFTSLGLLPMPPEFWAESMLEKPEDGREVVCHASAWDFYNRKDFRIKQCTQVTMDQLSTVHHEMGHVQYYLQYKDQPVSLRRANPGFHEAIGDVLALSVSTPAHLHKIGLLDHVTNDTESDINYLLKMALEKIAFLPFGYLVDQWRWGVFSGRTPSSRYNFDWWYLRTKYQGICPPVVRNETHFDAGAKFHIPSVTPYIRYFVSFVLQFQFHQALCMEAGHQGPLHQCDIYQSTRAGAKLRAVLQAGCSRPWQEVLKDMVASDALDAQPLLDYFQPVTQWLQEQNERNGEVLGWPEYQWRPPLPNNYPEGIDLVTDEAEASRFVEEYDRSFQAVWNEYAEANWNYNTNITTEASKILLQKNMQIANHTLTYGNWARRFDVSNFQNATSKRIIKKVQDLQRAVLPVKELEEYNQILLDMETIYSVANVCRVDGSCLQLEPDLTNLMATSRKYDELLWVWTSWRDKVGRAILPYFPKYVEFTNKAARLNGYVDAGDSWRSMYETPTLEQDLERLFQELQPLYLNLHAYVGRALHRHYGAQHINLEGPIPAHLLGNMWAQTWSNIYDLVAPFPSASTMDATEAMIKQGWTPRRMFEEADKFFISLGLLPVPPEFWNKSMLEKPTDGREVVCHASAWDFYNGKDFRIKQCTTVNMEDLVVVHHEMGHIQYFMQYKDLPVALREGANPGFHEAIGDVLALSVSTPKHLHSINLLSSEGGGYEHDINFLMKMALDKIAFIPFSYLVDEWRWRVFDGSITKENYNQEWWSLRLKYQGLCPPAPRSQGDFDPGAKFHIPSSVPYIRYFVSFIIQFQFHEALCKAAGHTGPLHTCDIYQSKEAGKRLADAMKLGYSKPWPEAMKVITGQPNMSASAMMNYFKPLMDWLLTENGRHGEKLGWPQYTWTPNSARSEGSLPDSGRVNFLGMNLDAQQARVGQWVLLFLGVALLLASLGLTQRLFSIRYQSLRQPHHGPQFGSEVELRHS
Procedure: The in vitro ACE inhibitory activity of peptides was measured following the methodology described by Hayakari et al., with some modifications. […] It was incubated at 37 °C for 60 min. […] Three independent runs were performed for each sample.

DPP-IV [1] = molecular target: T2, DPP-IV (Homo sapiens, UniProt P27487); assay: DPP-IV inhibitory activity (Inhibitor Screening Kit MAK203); assay type: biochemical; details: n.d. = activity not detected; mean ± SD; read-out: DPP-IV Inhibition (IC50)
T2 construct: purchased Sigma-Aldrich MAK203
Procedure: The DPP-IV inhibitory activity was determined using the DPP-IV Inhibitor Screening Kit MAK203, according to the manufacturer’s instructions. […] After this time, the fluorescence was measured each 2 min at λexcitation and λemission of 360 and 460 nm, respectively, in the Infinite M200 Pro plate reader (Tecan Group AG). Three independent runs were performed for each sample. The results were expressed as IC50 value.

SH-SY5Y cells = assay: Cell viability, MTT assay; assay type: cell-based, human; details: basal conditions, highest concentration 100 µM, 24 h; data not shown
Procedure: Human neuroblastoma SH-SY5Y cells were obtained from the American Type Culture Collection (ATCC, […], Rockville, MD, USA) and grown in RPMI-1640 medium supplemented with 10% FBS, 2 mM L-glutamine, 1 mM sodium pyruvate, 1 mM NEAA, and 50 μg/mL gentamicin in a humidified incubator containing 5% CO2 and 95% air at 37 °C.
The effects of pajuro-derived peptides on cell viability were determined using the MTT assay, following the protocol previously described by Palma-Albino et al.. SH-SY5Y cells were seeded (2 × 10^4 cells/well) onto 96-well plates in complete medium with 1% FBS and incubated at 37 °C for 16 h. After discarding the culture medium, the peptide sample was added (at concentration of 10, 25, and 100 µM), and the plate was incubated for 24 h. Upon removing the supernatant, a MTT solution (2 mg/mL) was added, and the plate was incubated for 60 min at 37 °C. After this time, the supernatant was discarded, and the formazan crystals were dissolved in dimetilsulfoxide (DMSO). The absorbance was measured at 570 nm in the Infinite M200 Pro plate reader (Tecan Group AG). Three independent runs were performed for each sample. The results were expressed as percentage of the control, considered as 100%.

[2] = tested on: T3, porcine pancreatic lipase type II; assay: Pancreatic lipase inhibitory activity; assay type: biochemical; details: control orlistat at 0.5 µM
T3 construct: porcine pancreatic lipase type II; purchased Sigma-Aldrich; host or cells: porcine pancreas tissue
Procedure: The pancreatic lipase inhibitory activity was determined following the protocols previously described, with some modifications. […] Three independent runs were performed for each sample. The results were expressed as percentage of the negative control, considered as 100%.

DPP-IV [3] = molecular target: T2, DPP-IV; details: literature value; cited from earlier work
[4] = tested on: T4, α-amylase type VI-B from porcine pancreas; assay: α-amylase inhibition assay; assay type: biochemical; details: control acarbose at 10 mM
T4 construct: α-amylase type VI-B from porcine pancreas; purchased Sigma-Aldrich; host or cells: porcine pancreas tissue
Procedure: The α-amylase inhibition assay was carried out following the methods described by Subramanian et al. and Kumar et al., with some modifications. Then, 200 µL of mixture, containing α-amylase (800 mU), 0.125% starch, and peptide (100 µM) or standard (at different concentrations) in 0.1 M phosphate buffer (pH 6.9), was incubated at 37 °C for 30 min. After adding 100 µL of a solution containing 1% 3,5-dinitrosalicylic acid and 30% sodium potassium tartrate in 0.4 M NaOH, shaking, and incubating at 100 °C for 10 min, the absorbance was measured at 540 nm in an Infinite M200 Pro plate reader (Tecan Group AG). Three independent runs were performed for each sample. The results were expressed as percentage of the negative control, considered as 100%.

[5] = tested on: α-glucosidase from Saccharomyces cerevisiae; assay: α-glucosidase inhibitory activity; assay type: biochemical; details: control acarbose at 10 mM
Procedure: The α-glucosidase inhibitory activity was determined as previously reported, with some modifications. […] Three independent runs were performed for each sample. The results were expressed as percentage of the negative control, considered as 100%.

α-glucosidase = details: ref Vilcacundo et al. [46]; read-out: α-glucosidase inhibitory capacity (IC50); cited from earlier work

T2 sequence (P27487 whole entry): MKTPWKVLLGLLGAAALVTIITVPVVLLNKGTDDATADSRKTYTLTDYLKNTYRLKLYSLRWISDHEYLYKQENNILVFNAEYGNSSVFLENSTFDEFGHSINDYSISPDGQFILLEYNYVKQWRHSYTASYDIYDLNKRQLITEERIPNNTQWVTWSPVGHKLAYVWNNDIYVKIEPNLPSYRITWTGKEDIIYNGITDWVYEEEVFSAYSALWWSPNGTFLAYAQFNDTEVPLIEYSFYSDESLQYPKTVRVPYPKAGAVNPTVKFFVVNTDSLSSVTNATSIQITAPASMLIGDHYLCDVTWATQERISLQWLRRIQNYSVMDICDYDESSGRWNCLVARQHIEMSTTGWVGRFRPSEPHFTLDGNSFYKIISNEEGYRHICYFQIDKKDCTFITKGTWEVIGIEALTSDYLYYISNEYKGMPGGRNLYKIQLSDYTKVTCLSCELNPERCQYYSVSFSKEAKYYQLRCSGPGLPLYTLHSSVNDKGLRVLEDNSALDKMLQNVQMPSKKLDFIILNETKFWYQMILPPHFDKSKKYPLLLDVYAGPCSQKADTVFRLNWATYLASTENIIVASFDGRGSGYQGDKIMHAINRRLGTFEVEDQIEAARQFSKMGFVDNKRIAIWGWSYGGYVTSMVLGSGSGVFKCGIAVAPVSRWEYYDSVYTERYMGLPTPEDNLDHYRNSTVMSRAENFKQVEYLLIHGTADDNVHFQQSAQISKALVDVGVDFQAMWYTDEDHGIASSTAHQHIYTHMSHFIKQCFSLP

Compound | IC50 (ACE from rabbit lung) [µM] | IC50 (DPP-IV [1]) [µM] | effect on cell viability (cytotoxicity) (SH-SY5Y cells) | other results
N[C@@H](Cc1ccc(O)cc1)C(=O)N1CCC[C@H]1C(=O)N[C@@H](CO)C(=O)N[C@@H](Cc1ccc(O)cc1)C(=O)O [YPSY] (H-YPSY-OH; N-terminus and C-terminus assumed) | 115.6 ± 0.26 | 32.6 ± 1.6 | None of them, at the highest concentration assayed (100 µM), affected the cell viability | 
CCCCCCCCCCC[C@@H](C[C@@H]1OC(=O)[C@H]1CCCCCC)OC(=O)[C@H](CC(C)C)NC=O [orlistat] |  |  |  | Pancreatic lipase Inhibition [2]: 94.62 ± 0.90%
AALWE [AALWE] |  | 131 ± 2.34 | None of them, at the highest concentration assayed (100 µM), affected the cell viability | 
SQLPGW [SQLPGW] | 50.5 ± 0.95 |  | None of them, at the highest concentration assayed (100 µM), affected the cell viability | 
DGLGYY [DGLGYY] | 82.6 ± 0.58 |  | None of them, at the highest concentration assayed (100 µM), affected the cell viability | 
MFTGPY [MFTGPY] |  | 214 ± 2.83 | None of them, at the highest concentration assayed (100 µM), affected the cell viability | 
diprotin A |  |  |  | IC50 (DPP-IV [3]): 24.7 µM
C[C@H]1O[C@H](O[C@H]2[C@H](O)[C@@H](O)[C@@H](O[C@H]3[C@H](O)[C@@H](O)C(O)O[C@@H]3CO)O[C@@H]2CO)[C@H](O)[C@@H](O)[C@@H]1N[C@H]1C=C(CO)[C@@H](O)[C@H](O)[C@H]1O (stereo partly shown) [acarbose] |  |  |  | α-Amylase Inhibition [4]: 75.05 ± 1.55%; α-Glucosidase Inhibition [5]: 62.36 ± 0.54%
IQAEGGLT |  |  |  | IC50 (α-glucosidase): 110 µM
